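48-hour exposure; five concentrations; linearly interpolated endpoints. TGI: total growth inhibition.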
Columns and labels:
Assay in all cases: NCI-60 cell line screen, 48 h
[1] = system: 786-0 renal
[2] = system: A549 NSCLC
[3] = system: ACHN renal
[4] = system: BT-549 breast
[5] = system: CAKI-1 renal
[6] = system: COLO 205 colon
[7] = system: DU-145 prostate
[8] = system: EKVX NSCLC
[9] = system: HCC-2998 colon
[10] = system: HCT-116 colon
[11] = system: HCT-15 colon
[12] = system: HS 578T breast
[13] = system: HT29 colon
[14] = system: KM12 colon
[15] = system: LOX IMVI melanoma
[16] = system: M14 melanoma
[17] = system: MALME-3M melanoma
[18] = system: MCF7 breast
[19] = system: MDA-MB-435
[20] = system: MDA-N
[21] = system: MOLT-4 leukemia
[22] = system: NCI-H226 lung
[23] = system: NCI-H23 lung
[24] = system: NCI-H522 lung
[25] = system: NCI/ADR-RES ovarian
[26] = system: OVCAR-3 ovarian
[27] = system: OVCAR-4 ovarian
[28] = system: OVCAR-5 ovarian
[29] = system: OVCAR-8 ovarian
[30] = system: PC-3 prostate
[31] = system: RPMI-8226 leukemia
[32] = system: RXF 393 renal
[33] = system: SF-268 CNS
[34] = system: SF-295 CNS
[35] = system: SF-539 CNS
[36] = system: SK-MEL-2 melanoma
[37] = system: SK-MEL-28 melanoma
[38] = system: SK-MEL-5 melanoma
[39] = system: SK-OV-3 ovarian
[40] = system: SN12C renal
[41] = system: SNB-19 CNS
[42] = system: SNB-75 CNS
[43] = system: SR leukemia
[44] = system: SW-620 colon
[45] = system: T-47D breast
[46] = system: TK-10 renal
[47] = system: U251 CNS
[48] = system: UACC-257 melanoma
[49] = system: UACC-62 melanoma
[50] = system: UO-31 renal
[51] = system: CCRF-CEM leukemia
[52] = system: HOP-62 NSCLC
[53] = system: IGROV1 ovarian
[54] = system: K-562 leukemia
[55] = system: MDA-MB-231 breast
[56] = system: NCI-H460 lung

Which TGI [1] does the source give for `C[C@]12CC[C@H](O)CC1=CC[C@@H]1[C@@H]2CC[C@]2(C)C(=O)CC[C@@H]12` here?
Its TGI is greater than 100 µM.

What about the TGI [2] of the same compound?
Its TGI is greater than 100 µM.

What about the TGI [3] of the same compound?
The TGI was greater than 100 µM.

What about the TGI [4] of the same compound?
The TGI was greater than 100 µM.

What about the TGI [5] of the same compound?
Its TGI is greater than 100 µM.

What about the TGI [6] of the same compound?
Its TGI is greater than 100 µM.

What about the TGI [7] of the same compound?
Its TGI is greater than 100 µM.

And the TGI [8]?
The TGI was greater than 100 µM.

And the TGI [9]?
The TGI was greater than 100 µM.

What about the TGI [10] of the same compound?
The TGI was greater than 100 µM.

And the TGI [11]?
The TGI was greater than 100 µM.

What about the TGI [12] of the same compound?
The TGI was 97.9 µM.

And the TGI [13]?
The TGI was greater than 100 µM.

What about the TGI [14] of the same compound?
The TGI was greater than 100 µM.

And the TGI [15]?
Its TGI is greater than 100 µM.

And the TGI [16]?
Its TGI is greater than 100 µM.

And the TGI [17]?
The TGI was greater than 100 µM.

And the TGI [18]?
The TGI was greater than 100 µM.

And the TGI [19]?
Its TGI is greater than 100 µM.

What about the TGI [20] of the same compound?
The TGI was greater than 100 µM.

And the TGI [21]?
The TGI was greater than 100 µM.

And the TGI [22]?
Its TGI is greater than 100 µM.

What about the TGI [23] of the same compound?
The TGI was greater than 100 µM.

What about the TGI [24] of the same compound?
Its TGI is greater than 100 µM.

What about the TGI [25] of the same compound?
Its TGI is greater than 100 µM.

What about the TGI [26] of the same compound?
The TGI was greater than 100 µM.

And the TGI [27]?
The TGI was greater than 100 µM.

What about the TGI [28] of the same compound?
The TGI was greater than 100 µM.

And the TGI [29]?
The TGI was greater than 100 µM.

And the TGI [30]?
Its TGI is greater than 100 µM.

And the TGI [31]?
The TGI was greater than 100 µM.

And the TGI [32]?
Its TGI is greater than 100 µM.

And the TGI [33]?
Its TGI is greater than 100 µM.

And the TGI [34]?
Its TGI is greater than 100 µM.

What about the TGI [35] of the same compound?
Its TGI is greater than 100 µM.

And the TGI [36]?
Its TGI is greater than 100 µM.

What about the TGI [37] of the same compound?
The TGI was greater than 100 µM.

What about the TGI [38] of the same compound?
The TGI was greater than 100 µM.

And the TGI [39]?
The TGI was greater than 100 µM.

And the TGI [40]?
The TGI was greater than 100 µM.

What about the TGI [41] of the same compound?
The TGI was greater than 100 µM.

What about the TGI [42] of the same compound?
Its TGI is greater than 100 µM.

What about the TGI [43] of the same compound?
Its TGI is greater than 100 µM.

And the TGI [44]?
Its TGI is greater than 100 µM.

And the TGI [45]?
The TGI was greater than 100 µM.

And the TGI [46]?
The TGI was greater than 100 µM.

And the TGI [47]?
The TGI was greater than 100 µM.

And the TGI [48]?
The TGI was greater than 100 µM.

What about the TGI [49] of the same compound?
The TGI was greater than 100 µM.

And the TGI [50]?
The TGI was greater than 100 µM.

For `COC(=O)CNC(=O)Nc1cc(N2C(=O)ON3C2C(C)(C)N(O)C3(C)C)ccc1C` (centres undefined), which TGI [1] is on record?
The TGI was greater than 100 µM.

What about the TGI [2] of the same compound?
The TGI was greater than 100 µM.

What about the TGI [3] of the same compound?
Its TGI is greater than 100 µM.

And the TGI [4]?
Its TGI is greater than 100 µM.

And the TGI [5]?
Its TGI is greater than 100 µM.

And the TGI [51]?
The TGI was greater than 100 µM.

What about the TGI [6] of the same compound?
Its TGI is greater than 100 µM.

And the TGI [8]?
The TGI was greater than 100 µM.

What about the TGI [9] of the same compound?
Its TGI is greater than 100 µM.

And the TGI [10]?
Its TGI is greater than 100 µM.

What about the TGI [11] of the same compound?
Its TGI is greater than 100 µM.

And the TGI [52]?
The TGI was greater than 100 µM.

And the TGI [12]?
Its TGI is greater than 100 µM.

What about the TGI [13] of the same compound?
Its TGI is greater than 100 µM.

What about the TGI [53] of the same compound?
The TGI was greater than 100 µM.

And the TGI [54]?
The TGI was greater than 100 µM.

What about the TGI [14] of the same compound?
Its TGI is greater than 100 µM.

And the TGI [15]?
The TGI was greater than 100 µM.

What about the TGI [16] of the same compound?
Its TGI is greater than 100 µM.

And the TGI [17]?
The TGI was greater than 100 µM.

And the TGI [18]?
The TGI was greater than 100 µM.

What about the TGI [55] of the same compound?
The TGI was greater than 100 µM.

And the TGI [19]?
Its TGI is greater than 100 µM.

And the TGI [20]?
The TGI was greater than 100 µM.

And the TGI [21]?
Its TGI is greater than 100 µM.

And the TGI [22]?
Its TGI is greater than 100 µM.

What about the TGI [23] of the same compound?
The TGI was greater than 100 µM.

What about the TGI [56] of the same compound?
Its TGI is greater than 100 µM.

And the TGI [24]?
Its TGI is greater than 100 µM.

And the TGI [25]?
The TGI was greater than 100 µM.

What about the TGI [26] of the same compound?
Its TGI is greater than 100 µM.

What about the TGI [27] of the same compound?
Its TGI is greater than 100 µM.

And the TGI [28]?
The TGI was greater than 100 µM.

And the TGI [29]?
Its TGI is greater than 100 µM.

And the TGI [30]?
The TGI was greater than 100 µM.

And the TGI [32]?
The TGI was greater than 100 µM.

What about the TGI [33] of the same compound?
The TGI was greater than 100 µM.

What about the TGI [34] of the same compound?
Its TGI is greater than 100 µM.

And the TGI [35]?
Its TGI is greater than 100 µM.

What about the TGI [36] of the same compound?
The TGI was greater than 100 µM.

And the TGI [37]?
The TGI was greater than 100 µM.

And the TGI [38]?
Its TGI is greater than 100 µM.

And the TGI [39]?
Its TGI is greater than 100 µM.

What about the TGI [40] of the same compound?
The TGI was greater than 100 µM.

And the TGI [41]?
Its TGI is greater than 100 µM.

And the TGI [42]?
Its TGI is greater than 100 µM.

What about the TGI [43] of the same compound?
Its TGI is greater than 100 µM.

What about the TGI [44] of the same compound?
The TGI was greater than 100 µM.

What about the TGI [45] of the same compound?
Its TGI is greater than 100 µM.

And the TGI [46]?
Its TGI is greater than 100 µM.

And the TGI [47]?
Its TGI is greater than 100 µM.

What about the TGI [48] of the same compound?
Its TGI is greater than 100 µM.

What about the TGI [49] of the same compound?
Its TGI is greater than 100 µM.

What about the TGI [50] of the same compound?
Its TGI is greater than 100 µM.

Reference: PubChem BioAssay (NCI)
